These results are taken from US20180369230A1, “TARGETED SELECTION OF PATIENTS FOR TREATMENT WITH SPECIFIC CORTISTATIN DERIVATIVES” (President and Fellows of Harvard College, priority 2015, published 2018).

For one assay, the system named is MV4;11-mCLP leukemia. The assay is described as follows: MV4;11 xenograft model. The format is in vivo, mice. How it is done:
The MV4;11 xenograft model was performed as previously described (Etchin, J. et al. Antileukemic activity of nuclear export inhibitors that spare normal hematopoietic cells. Leukemia 27, 66-74 (2013)). Two-million MV4;11-mCLP cells were injected into the tail vein of 7-week-old female non-obese diabetic-severe combined immuno-deficient (NOD-SCID)Il2rg^−/− (NSG) mice (The Jackson Laboratory) and tumour burden was assessed by bioluminescence imaging (BLI) using an IVIS Spectrum system (Caliper Life Sciences). Seven days after injection, leukaemia establishment was documented by BLI and mice were assigned to groups to achieve a similar mean BLI and treated intraperitoneally with vehicle (20% hydroxypropyl-β-cyclodextrin) or CA once daily for 15 days. After 30 days, blood counts were obtained (Hemavet 950 F, Drew Scientific) and spleen, femur and peripheral blood cells were collected and analysed by flow cytometry (LSR Fortessa, BD Biosciences) from three mice per group, having the highest, lowest and median BLI value. […]
(§1) Samples from all organs were then dissected and placed in nine cassettes per mouse. […] Survival was measured as the time from therapy initiation until moribund state. […]
as §1

A further assay relates to SET-2 cells. The assay can be described thus: Gene expression, gene set enrichment analysis (GSEA). The format is cell-based, human. As to conditions: SET-2, 4 h 25 nM. How it is done: (§2) Leukemia cells were plated (12-well) in triplicate at 500,000-800,000 cells per ml and incubated in the presence of vehicle (0.1% DMSO) or CA (25 nM 3 h for K562, MOLM-14 and MV4;11; 10 nM 24 h for MOLM-14; 25 nM 4 h for SET-2, n=3 for each cell line). Cells were then washed twice with cold PBS, and snap frozen. RNA was isolated (RNeasy Plus Microkit, Qiagen or TRIzol, Life Technologies), processed, and, for K562, MOLM-14 and MV4;11, hybridized to the Human U133 Plus 2.0 microarray (Affymetrix). Microarrays were processed with Bioconductor packages affyQCReport for quality control and affy for background correction, summarization, and normalization using rma. Probe sets present in at least 1 sample (based on affy mas5call) and for which the interquartile range was >log2(1.2) were retained for further analysis. The limma Bioconductor package was used for differential expression analysis of CA-treated versus DMSO control samples (Benjamini-Hochberg adjusted P<0.05). SET-2 and HCT 116 gene expression was measured by RNA-seq. SET-2 RNA-seq libraries were prepared and processed using the Ion Torrent workflow. Reads were aligned in two passes, first with rnaStar (v.2.3.0e) then with BWA (v.0.7.5a) for remaining unmapped reads, both using default parameters. Mapped reads were merged and counted using HTSeq (v.0.5.3p3) with -s yes -m intersection-strict. The Bioconductor package DESeq was used for DE analysis (FDR<0.05 and twofold change) and normalization. HCT116 cells were grown to approximately 80% confluence and were treated with either 100 nM CA or DMSO for 3 h (n=3). Cells were then washed twice with cold PBS and scraped into TRIzol reagent (Life Technologies). After collecting the RNA, it was further purified using an RNeasy mini kit (Qiagen) with an on-column DNase I digestion. Libraries for Illumina sequencing were generated via the Illumina TruSEQ stranded mRNA prep kit. Samples were run in a single lane on an Illumina HiSEQ 2000 sequencer with a single read flow cell using 1×50-bp reads and a 6-cycle index read. Reads were mapped to the hg19 reference genome using Tophat2 v.2.0.6 with custom settings including the setting of -library-type fr- firstrand to appropriately account for the stranded nature of the protocol. HTSeq v.0.6.1 was used to obtain read counts over annotated genes and differentially expressed genes were called by DESeq v.1.10.1 with a padj value of less than 0.01. Counts were normalized for GSEA using the limma voom function. Expression data for the I-BET151 comparison were downloaded from ArrayExpress (https://www.ebi.ac.uk/arrayexpress, accession E-MTAB-774) and processed files used as is. Gene lists were submitted to the DAVID web server (http://david.abcc.ncifcrf.gov) for functional annotation. GSEA version 2.09 was carried out using signal-to-noise on natural values as the metric. Signatures included curated gene sets (C2, v.3) downloaded from the Broad's MSigDB as well as signatures curated from in-house and published data sets.
(§3) The curated gene sets were analyzed together with over 4,000 signatures including the Broad Molecular Signatures database (C2).

The subject of the next assay is MOLM-14 cells. Described as above. The format is cell-based, human. As to conditions: MOLM-14, 3 h 25 nM. The method, then:
as §2, §3

A further assay concerns T47D. The assay is described as follows: Soft agar growth assay. The format is cell-based. As to conditions: Breast cancer, ER-alpha positive, 100 nM. The method, then: For the 62 cell lines 96 well suspension cell culture plates were prepared. 100 μL of the soft agar bottom layer (0.6% final concentration in complete medium) was poured and left to solidify. 50 μL of the soft agar top layer (0.4% final concentration) containing the corresponding cells and cell number were then added on top, solidified and incubated at 37° C., 10% CO2. After the soft agar had solidified, the test items were added at indicated final concentrations into the inner wells of the plate. Subsequently, the assay was incubated in cell culture incubators for 8 to 14 days. Finally, the assay was developed using Alamar Blue and upon 1-5 h of incubation at 37° C. fluorescence intensity was determined (excitation: 560 nm; emission: 590 nm). As low control, cells were treated with 1E-05M Staurosporine (6fold values). As high control, cells were treated with 0.1% DMSO (solvent control, 6 fold values).
Raw data were converted into percent soft agar growth relative to high controls (solvent 0.1% DMSO) and low controls (1E-05M Staurosporine), which were set to 100% and 0%, respectively. The results are tabulated in FIGS. 15A, 15B, and 15C and Table 4 below.

The subject of a further assay is RUNX1 target genes. The assay can be described thus: Determination of gene expression levels. The format is cell-based, human. Conditions: SET-2, MOLM-14 and MV4;11. How it is done: Leukemia cells were plated (12-well) in triplicate at 500,000-800,000 cells per ml and incubated in the presence of vehicle (0.1% DMSO) or CA (25 nM 3 h for K562, MOLM-14 and MV4;11; 10 nM 24 h for MOLM-14; 25 nM 4 h for SET-2, n=3 for each cell line). Cells were then washed twice with cold PBS, and snap frozen. RNA was isolated (RNeasy Plus Microkit, Qiagen or TRIzol, Life Technologies), processed, and, for K562, MOLM-14 and MV4;11, hybridized to the Human U133 Plus 2.0 microarray (Affymetrix). Microarrays were processed with Bioconductor packages affyQCReport for quality control and affy for background correction, summarization, and normalization using rma. […] SET-2 and HCT 116 gene expression was measured by RNA-seq. […] Reads were aligned in two passes, first with rnaStar (v.2.3.0e) then with BWA (v.0.7.5a) for remaining unmapped reads, both using default parameters. Mapped reads were merged and counted using HTSeq (v.0.5.3p3) with -s yes -m intersection-strict. […] Samples were run in a single lane on an Illumina HiSEQ 2000 sequencer with a single read flow cell using 1×50-bp reads and a 6-cycle index read. Reads were mapped to the hg19 reference genome using Tophat2 v.2.0.6 with custom settings including the setting of -library-type fr- firstrand to appropriately account for the stranded nature of the protocol. […]

A further assay has as its system RUNX1. The assay is described as follows: RUNX1 recruitment to genomic loci. It counts as cell-based. Conditions: FIG. 11.

Turning to Cortistatin A, in the assay on MV4;11-mCLP leukemia (MV4;11 AML mice, Day 30, vs vehicle), the “leukemia cells in the lungs (haematoxylin and eosin staining)” value was “fewer leukemia cells in the lungs”. Further, the spleen weight result in the assay with MV4;11-mCLP leukemia (NSG mice, disseminated MV4;11-mCLP leukemia, once daily IP for 15 days, 15 days after stopping treatment) is recorded as “prevents spleen weight increase”. For the same substance, the NES in the assay on SET-2 cells (signature: GATA1/GATA2/RUNX1/FLI1/SCL Binding Sites in Mks) stood at 2.03; in the assay with SET-2 cells (signature: GATA1/SCL Binding sites in Mks), 2.27; in the assay on MOLM-14 cells (signature: Downregulated by RUNX1-RUNX1T1 in CD34+ cord blook cells), 2.50; with MOLM-14 cells (signature: Downregulated by RUNX1 knowckdown in Jurkat cells) it was 2.00; with MOLM-14 cells (signature: Downregulated by RUNX1 knowckdown in Kasumi-1 cells) it was 2.21; with MOLM-14 cells (signature: Upregulated by C/EBPα in Burkitt lymphoma cells) it was 2.56. For the same substance, the NES in the assay on MOLM-14 cells (signature: Upregulated by C/EBPα in K562 cells) was found to be 2.22; in the assay with MOLM-14 cells (signature: Upregulated by C/EBPα in KCL22 cells) it was 2.22; with MOLM-14 cells (signature: Upregulated by RUNX1-RUNX1T1 knockdown in Kasumi-1 cells), 2.78. The “% growth rel. to vehicle” value in the assay with T47D was determined as 48%. In addition, in the assay on RUNX1 target genes, the “expression of RUNX1 target genes including CEBPA, IRF8 and NFE2” value was “upregulated”. In addition, the “RUNX1 recruitment to loci” value in the assay with RUNX1 was “recruited”.
